Reference: patent US20090099133A1, “Isoquinolines Derivatives as Igf-1R Inhibitors” (priority 2005, published 2009)
pIC50: −log10 of the molar value. ≈ marks a conversion by molar mass, not a printed value. Counter-ions that a name gives are not always drawn. Like-named read-outs stand apart in the source and are kept apart here.

Key:
[1] = Solubility in a physiologically acceptable buffer (sodium phosphate buffer, pH 7.4); assay type: physicochemical; details: sodium phosphate buffer at pH 7.4
Source text: The corresponding solubility of the parent compound is about 20 microgram.

alkaline phosphatase = target: T1, alkaline phosphatase (Bos taurus, UniProt P19111); experiment: Dephosphorylation by alkaline phosphatase in vitro; assay type: in vitro ADME; details: bovine, bovine alkaline phosphatase (type VII S, Sigma-Aldrich); phosphatase concentration of 10 units/ml, 37° C., pH 7.4; read-out: half-life time of dephosphorylation
T1 construct: purchased Sigma-Aldrich type VII S
T1 sequence (P19111 20-506 limits assumed): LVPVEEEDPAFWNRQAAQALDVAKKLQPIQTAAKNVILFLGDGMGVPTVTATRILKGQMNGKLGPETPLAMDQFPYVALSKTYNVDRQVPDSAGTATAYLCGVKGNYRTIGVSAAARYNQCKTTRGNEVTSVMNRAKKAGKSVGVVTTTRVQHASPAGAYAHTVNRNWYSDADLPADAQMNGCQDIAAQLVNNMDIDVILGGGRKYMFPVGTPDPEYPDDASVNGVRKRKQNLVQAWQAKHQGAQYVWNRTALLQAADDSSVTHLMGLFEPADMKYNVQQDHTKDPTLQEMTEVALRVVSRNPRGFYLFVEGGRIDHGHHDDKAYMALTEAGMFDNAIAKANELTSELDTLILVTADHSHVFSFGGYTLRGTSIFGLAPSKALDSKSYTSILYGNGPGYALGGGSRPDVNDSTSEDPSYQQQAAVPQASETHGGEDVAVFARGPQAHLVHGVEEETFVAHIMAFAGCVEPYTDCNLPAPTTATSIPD
Source text: The ability of bovine alkaline phosphatase (type VII S, Sigma-Aldrich) to dephosphorylate the title compound was investigated in vitro. […] Intravenous administration of the title compound is consequently expected to result in a rapid formation of the active moiety (1R)-1-(3,4,5-trimethoxyphenyl)-2-formyl-5-hydroxy-6-methoxy-1,2,3,4-tetrahydroisoquinoline (see FIG. 1).

[2] = test system: phospho-MAPK (Erk1/2) in DU-145 cells; experiment: Inhibition of IGF-1 stimulated phosphorylation of MAPK in DU-145 cells (immunoblotting); assay type: cell-based; details: Homo sapiens
Method: (§1) DU-145 cells (prostate cancer) were incubated over night with the title compound in serum free medium. After stimulation for 15 minutes with IGF-1 (50 nM), the cells were lyzed and the lysates analysed by immunoblotting for phospho-MAPK and phospho-AKT.

[3] = test system: phospho-AKT in DU-145 cells; experiment: Inhibition of IGF-1 stimulated phosphorylation of AKT in DU-145 cells (immunoblotting); assay type: cell-based; details: Homo sapiens, 0.25 h, incubated over night in serum free medium, IGF-1 (50 nM) stimulation 15 minutes
Method: as §1

COc1cc([C@@H]2c3ccc(OC)c(OP(=O)(O)O)c3CCN2C=O)cc(OC)c1OC (as salt: phosphate) [(1R)-1-(3,4,5-trimethoxyphenyl)-2-formyl-5-(dihydrogen phosphate)-6-methoxy-1,2,3,4-tetrahydroisoquinoline]
melting point: 138 to 141 °C

COc1cc([C@@H]2c3ccc(OC)c(OP(=O)(O)O)c3CCN2C=O)cc(OC)c1OC [(1R)-1-(3,4,5-trimethoxyphenyl)-2-formyl-5-(dihydrogen phosphate)-6-methoxy-1,2,3,4-tetrahydroisoquinoline]
solubility ([1]; aqueous buffer, read-out: solubility): > 50000 µg/mL
half-life (alkaline phosphatase): 8 min

COc1cc([C@@H]2c3cc4c(cc3[C@H](O)[C@H]3COC(=O)[C@@H]23)OCO4)cc(OC)c1OC [Picropodophyllin, reference compound]
pIC50 ([2]; standard, read-out: IC50 inhibition of phospho-MAPK (Erk1/2)): ~5.30

COc1ccc2c(c1O)CCN(C=O)[C@@H]2c1cc(OC)c(OC)c(OC)c1 [(1R)-1-(3,4,5-trimethoxyphenyl)-2-formyl-5-hydroxy-6-methoxy-1,2,3,4-tetrahydroisoquinoline]
pIC50 [3]: 7.40
melting point: 190 to 192 °C
solubility ([1]; aqueous buffer, parent compound, read-out: solubility): ~20 µg/mL (≈ 53.6 µM)
solubility ([1]; parent compound): about 20 microgram
pIC50 ([2]; 0.25 h, incubated over night in serum free medium, IGF-1 (50 nM) stimulation 15 minutes, read-out: IC50 inhibition of phosphorylation of MAPK (Erk1/2)): 7.30
